Measurements: publication PMC5998028, “Synthesis, antimicrobial activity and conformational analysis of the class IIa bacteriocin pediocin PA-1 and analogs thereof” (Scientific Reports, 2018)

Experiment: Stability of the peptide in solution (storage, handling, assays)
Conditions: qualitative, relative to Met31-containing pediocin PA-1 3c

For `CC[C@H](C)[C@H](NC(=O)[C@H](CS)NC(=O)[C@@H](NC(=O)[C@@H](NC(=O)[C@H](C)NC(=O)[C@H](CCCCN)NC(=O)CNC(=O)[C@H](Cc1c[nH]c2ccccc12)NC(=O)[C@H](CC(=O)O)NC(=O)[C@@H](NC(=O)[C@H](CO)NC(=O)[C@H](CS)NC(=O)[C@H](CO)NC(=O)[C@H](Cc1c[nH]cn1)NC(=O)[C@H](CCCCN)NC(=O)CNC(=O)[C@H](CS)NC(=O)[C@@H](NC(=O)[C@@H](NC(=O)CNC(=O)[C@H](CC(N)=O)NC(=O)CNC(=O)[C@H](Cc1ccc(O)cc1)NC(=O)[C@H](Cc1ccc(O)cc1)NC(=O)[C@@H](N)CCCCN)C(C)C)[C@@H](C)O)C(C)C)[C@@H](C)O)[C@@H](C)O)C(=O)N[C@H](C(=O)N[C@@H](CC(N)=O)C(=O)N[C@@H](CC(N)=O)C(=O)NCC(=O)N[C@@H](C)C(=O)N[C@@H](CC(C)C)C(=O)N[C@@H](C)C(=O)N[C@@H](Cc1c[nH]c2ccccc12)C(=O)N[C@@H](C)C(=O)N[C@H](C(=O)NCC(=O)NCC(=O)N[C@@H](Cc1c[nH]cn1)C(=O)N[C@@H](CCC(N)=O)C(=O)NCC(=O)N[C@@H](CC(N)=O)C(=O)N[C@@H](Cc1c[nH]cn1)C(=O)N[C@@H](CCCCN)C(=O)N[C@@H](CS)C(=O)O)[C@@H](C)O)[C@@H](C)CC` [compound 4], the “molecular stability / stability in solution during storage, handling and assays” value was “significantly greater”.
